Results taken from PubChem BioAssay (NCI).
“And” between values parts separate entries of the source, which are not always exact repeats. Identical values can stand only once.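 Five concentrations, 48 hours, 96-well plates. GI50 is the concentration that inhibits growth by half. TGI marks complete inhibition of growth.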

Experiments:
Test in all cases: NCI anticancer screen, dose series, 48 h
NCI-H460 lung = test system: NCI-H460 lung
MOLT-4 leukemia = test system: MOLT-4 leukemia
SK-OV-3 ovarian = test system: SK-OV-3 ovarian
HS 578T breast = test system: HS 578T breast
IGROV1 ovarian = test system: IGROV1 ovarian
CCRF-CEM leukemia = test system: CCRF-CEM leukemia
SF-539 CNS = test system: SF-539 CNS
NCI-H226 lung = test system: NCI-H226 lung
RXF 393 renal = test system: RXF 393 renal
SNB-19 CNS = test system: SNB-19 CNS

**Q.** What does the source list for COc1cc2nc(C)nc(N[C@H](C)c3cc(N)cc(C(F)(F)F)c3)c2cc1O[C@H]1CCOC1?
**A.** GI50 (NCI-H460 lung): 18.5 µM; TGI (NCI-H460 lung): 36.6 µM; GI50 (MOLT-4 leukemia): 12.3 µM; TGI (MOLT-4 leukemia): 41.5 µM; GI50 (SK-OV-3 ovarian): 14.2 µM; TGI (SK-OV-3 ovarian): 28.3 µM; GI50 (HS 578T breast): 14.7 µM; TGI (HS 578T breast): 38.9 µM; GI50 (IGROV1 ovarian): 2.25 µM; TGI (IGROV1 ovarian): 20.3 µM; GI50 (CCRF-CEM leukemia): 13.5 µM; TGI (CCRF-CEM leukemia): 49.3 µM; GI50 (SF-539 CNS): 12.4 µM; TGI (SF-539 CNS): 25.1 µM; GI50 (NCI-H226 lung): 16.9 µM; TGI (NCI-H226 lung): 38.8 µM; GI50 (RXF 393 renal): 5.88 µM; TGI (RXF 393 renal): 22 µM; GI50 (SNB-19 CNS): 12.7 µM; TGI (SNB-19 CNS): 27.4 µM

**Q.** Which results are given for COc1ccc(C2=CSc3cc(Cl)c(C)cc3S(=O)(=O)N2C(C)=O)cc1?
**A.** GI50 (NCI-H460 lung): 29 µM; TGI (NCI-H460 lung): 99.5 µM; GI50 (MOLT-4 leukemia): 2.13 µM; TGI (MOLT-4 leukemia): > 100 µM; GI50 (SK-OV-3 ovarian): 60.6 µM; TGI (SK-OV-3 ovarian): > 100 µM; GI50 (HS 578T breast): 55.2 µM; TGI (HS 578T breast): > 100 µM; GI50 (IGROV1 ovarian): 36.2 µM; TGI (IGROV1 ovarian): > 100 µM; GI50 (CCRF-CEM leukemia): 38.6 µM; TGI (CCRF-CEM leukemia): > 100 µM; GI50 (SF-539 CNS): 33 µM; TGI (SF-539 CNS): 78.6 µM; GI50 (NCI-H226 lung): 15.2 µM; TGI (NCI-H226 lung): 60 µM; GI50 (RXF 393 renal): 35.6 µM; TGI (RXF 393 renal): > 100 µM; GI50 (SNB-19 CNS): 36.3 µM; TGI (SNB-19 CNS): > 100 µM

**Q.** What does the source list for COc1cc(/C=C/c2cc(/C=C/c3ccc(O)c(OC)c3)n(C(=O)Nc3ccc(F)cc3)n2)ccc1O?
**A.** GI50 (NCI-H460 lung): 0.546 µM; TGI (NCI-H460 lung): 12.4 µM; GI50 (MOLT-4 leukemia): 0.471 µM; TGI (MOLT-4 leukemia): > 22.8 µM; GI50 (SK-OV-3 ovarian): 1.04 µM; TGI (SK-OV-3 ovarian): 4.33 µM; GI50 (HS 578T breast): 0.689 µM; TGI (HS 578T breast): 6.11 µM; GI50 (IGROV1 ovarian): 2.38 µM; TGI (IGROV1 ovarian): 34.3 µM; GI50 (CCRF-CEM leukemia): 0.367 µM; TGI (CCRF-CEM leukemia): 9.57 µM; GI50 (SF-539 CNS): 0.46 µM; TGI (SF-539 CNS): 5.31 µM; GI50 (NCI-H226 lung): 2.62 µM; TGI (NCI-H226 lung): 9.79 µM; GI50 (RXF 393 renal): 0.268 µM; TGI (RXF 393 renal): 0.994 µM; GI50 (SNB-19 CNS): 1.23 µM; TGI (SNB-19 CNS): 22.7 µM

**Q.** How did the GI50 (NCI-H460 lung) turn out when Clc1cccc(Cc2cn3cc(-c4ccccc4)nc3s2)c1Cl was run?
**A.** > 100 µM

**Q.** And the TGI (NCI-H460 lung)?
**A.** > 100 µM

**Q.** And the GI50 (MOLT-4 leukemia)?
**A.** > 100 µM

**Q.** And the TGI (MOLT-4 leukemia)?
**A.** > 100 µM

**Q.** What about the GI50 (SK-OV-3 ovarian) of the same molecule?
**A.** 10.3 µM

**Q.** What about the TGI (SK-OV-3 ovarian) of the same molecule?
**A.** 97.6 µM

**Q.** What about the GI50 (HS 578T breast) of the same molecule?
**A.** 17.4 µM

**Q.** And the TGI (HS 578T breast)?
**A.** > 100 µM

**Q.** And the GI50 (IGROV1 ovarian)?
**A.** 31.4 µM

**Q.** What about the TGI (IGROV1 ovarian) of the same molecule?
**A.** > 100 µM

**Q.** What about the GI50 (CCRF-CEM leukemia) of the same molecule?
**A.** > 100 µM

**Q.** What about the TGI (CCRF-CEM leukemia) of the same molecule?
**A.** > 100 µM

**Q.** And the GI50 (SF-539 CNS)?
**A.** 43.3 µM

**Q.** What about the TGI (SF-539 CNS) of the same molecule?
**A.** > 100 µM

**Q.** What about the GI50 (NCI-H226 lung) of the same molecule?
**A.** 27.3 µM

**Q.** What about the TGI (NCI-H226 lung) of the same molecule?
**A.** > 100 µM

**Q.** What about the GI50 (RXF 393 renal) of the same molecule?
**A.** 3.13 µM

**Q.** And the TGI (RXF 393 renal)?
**A.** 18.7 µM

**Q.** What about the GI50 (SNB-19 CNS) of the same molecule?
**A.** 24.4 µM

**Q.** What about the TGI (SNB-19 CNS) of the same molecule?
**A.** > 100 µM

**Q.** Nc1cc2nc3ccccc3sc-2cc1=O was tested. Which GI50 (NCI-H460 lung) did it give?
**A.** 2.9 µM

**Q.** And the TGI (NCI-H460 lung)?
**A.** 10.2 µM

**Q.** What about the GI50 (MOLT-4 leukemia) of the same molecule?
**A.** 4.26 µM

**Q.** And the TGI (MOLT-4 leukemia)?
**A.** > 100 µM

**Q.** And the GI50 (SK-OV-3 ovarian)?
**A.** 13.1 µM

**Q.** And the TGI (SK-OV-3 ovarian)?
**A.** 53.5 µM

**Q.** What about the GI50 (HS 578T breast) of the same molecule?
**A.** 2.21 µM

**Q.** What about the TGI (HS 578T breast) of the same molecule?
**A.** 6.24 µM

**Q.** What about the GI50 (IGROV1 ovarian) of the same molecule?
**A.** 3.02 µM

**Q.** And the TGI (IGROV1 ovarian)?
**A.** 13.1 µM

**Q.** What about the GI50 (CCRF-CEM leukemia) of the same molecule?
**A.** 2.47 µM

**Q.** What about the TGI (CCRF-CEM leukemia) of the same molecule?
**A.** > 100 µM

**Q.** And the GI50 (SF-539 CNS)?
**A.** 2.01 µM

**Q.** What about the TGI (SF-539 CNS) of the same molecule?
**A.** 4.26 µM

**Q.** And the GI50 (NCI-H226 lung)?
**A.** 4.62 µM

**Q.** What about the TGI (NCI-H226 lung) of the same molecule?
**A.** 28.4 µM

**Q.** What about the GI50 (RXF 393 renal) of the same molecule?
**A.** 2.13 µM

**Q.** What about the TGI (RXF 393 renal) of the same molecule?
**A.** 6.14 µM

**Q.** What about the GI50 (SNB-19 CNS) of the same molecule?
**A.** 6.13 µM

**Q.** And the TGI (SNB-19 CNS)?
**A.** 20 µM

**Q.** Which TGI (NCI-H460 lung) does the source give for Cc1ccc(-c2nnc(-c3ccc4ccccc4c3)o2)cc1 here?
**A.** > 100 µM

**Q.** And the TGI (MOLT-4 leukemia)?
**A.** > 26.6 µM

**Q.** And the TGI (SK-OV-3 ovarian)?
**A.** > 100 µM

**Q.** What about the TGI (HS 578T breast) of the same molecule?
**A.** > 100 µM

**Q.** What about the TGI (IGROV1 ovarian) of the same molecule?
**A.** > 100 µM

**Q.** And the TGI (CCRF-CEM leukemia)?
**A.** > 25 µM

**Q.** What about the TGI (SF-539 CNS) of the same molecule?
**A.** > 60.2 µM

**Q.** What about the TGI (NCI-H226 lung) of the same molecule?
**A.** 99.9 µM

**Q.** What about the TGI (RXF 393 renal) of the same molecule?
**A.** 55.1 µM

**Q.** What about the TGI (SNB-19 CNS) of the same molecule?
**A.** > 100 µM

**Q.** What does the source list for O=C1c2ccccc2C(=O)c2sc(Nc3cccc(Cl)c3)nc21?
**A.** TGI (NCI-H460 lung): 4.25 µM; TGI (MOLT-4 leukemia): 3.05 µM; TGI (SK-OV-3 ovarian): 10.9 µM; GI50 (HS 578T breast): 2.82 µM; TGI (HS 578T breast): 9.15 µM; TGI (IGROV1 ovarian): 5.9 µM; TGI (CCRF-CEM leukemia): 3.89 µM; TGI (SF-539 CNS): 3.44 µM; TGI (NCI-H226 lung): 6.25 µM; TGI (RXF 393 renal): 3.19 µM; TGI (SNB-19 CNS): 4.36 µM

**Q.** With CCOC(=O)Nc1nc2ccc(OCC)cc2s1 as the molecule, how does the GI50 (NCI-H460 lung) read?
**A.** 6.28 µM

**Q.** What about the TGI (NCI-H460 lung) of the same molecule?
**A.** > 100 µM

**Q.** What about the GI50 (MOLT-4 leukemia) of the same molecule?
**A.** 59.4 µM

**Q.** What about the TGI (MOLT-4 leukemia) of the same molecule?
**A.** > 100 µM

**Q.** And the GI50 (SK-OV-3 ovarian)?
**A.** > 100 µM

**Q.** What about the TGI (SK-OV-3 ovarian) of the same molecule?
**A.** > 100 µM

**Q.** And the GI50 (HS 578T breast)?
**A.** 56.7 µM

**Q.** And the TGI (HS 578T breast)?
**A.** > 100 µM

**Q.** And the GI50 (IGROV1 ovarian)?
**A.** 31.7 µM

**Q.** What about the TGI (IGROV1 ovarian) of the same molecule?
**A.** > 100 µM

**Q.** What about the GI50 (CCRF-CEM leukemia) of the same molecule?
**A.** > 100 µM

**Q.** And the TGI (CCRF-CEM leukemia)?
**A.** > 100 µM

**Q.** And the GI50 (SF-539 CNS)?
**A.** 20.2 µM

**Q.** And the TGI (SF-539 CNS)?
**A.** > 100 µM

**Q.** And the GI50 (NCI-H226 lung)?
**A.** > 100 µM

**Q.** What about the TGI (NCI-H226 lung) of the same molecule?
**A.** > 100 µM

**Q.** What about the GI50 (RXF 393 renal) of the same molecule?
**A.** > 53.4 µM

**Q.** And the TGI (RXF 393 renal)?
**A.** > 100 µM

**Q.** And the GI50 (SNB-19 CNS)?
**A.** > 100 µM

**Q.** What about the TGI (SNB-19 CNS) of the same molecule?
**A.** > 100 µM

**Q.** How did the GI50 (NCI-H460 lung) turn out when O=C1NNC(=O)c2ccccc2SSc2ccccc2C(=O)NNC(=O)c2ccccc2SSc2ccccc21 was run?
**A.** 31 µM

**Q.** And the TGI (NCI-H460 lung)?
**A.** 50 µM and > 100 µM

**Q.** What about the TGI (MOLT-4 leukemia) of the same molecule?
**A.** 50 µM and 17.3 µM

**Q.** And the GI50 (SK-OV-3 ovarian)?
**A.** > 100 µM

**Q.** What about the TGI (SK-OV-3 ovarian) of the same molecule?
**A.** 50 µM and > 100 µM

**Q.** What about the GI50 (HS 578T breast) of the same molecule?
**A.** > 100 µM

**Q.** What about the TGI (HS 578T breast) of the same molecule?
**A.** > 100 µM

**Q.** What about the GI50 (IGROV1 ovarian) of the same molecule?
**A.** 6.66 µM

**Q.** What about the TGI (IGROV1 ovarian) of the same molecule?
**A.** 50 µM and > 100 µM

**Q.** And the GI50 (CCRF-CEM leukemia)?
**A.** 1.99 µM

**Q.** What about the TGI (CCRF-CEM leukemia) of the same molecule?
**A.** 35 µM and 11.8 µM

**Q.** What about the GI50 (SF-539 CNS) of the same molecule?
**A.** 2.87 µM

**Q.** And the TGI (SF-539 CNS)?
**A.** 50 µM and > 100 µM

**Q.** What about the TGI (NCI-H226 lung) of the same molecule?
**A.** > 50 µM

**Q.** What about the TGI (RXF 393 renal) of the same molecule?
**A.** > 50 µM

**Q.** What about the GI50 (SNB-19 CNS) of the same molecule?
**A.** 6.35 µM

**Q.** What about the TGI (SNB-19 CNS) of the same molecule?
**A.** 50 µM and > 100 µM
